For assay [1], the target named is T1, L-glutaminase (Glut) from Aspergillus oryzae EG-RE9.
T1 construct: gene gtaA; native extracellular enzyme purified from culture filtrate (ammonium sulfate, DEAE-cellulose, Sephadex G-200); 65 kDa by SDS-PAGE
Kind of assay: residual activity after preincubation, ammonia release (Nessler). The assay is classed as biochemical. To be noted: 0.1 M phosphate pH 7.0, 20 min preincubation at 37 °C, covalent. How it is done: residual activity after preincubation, ammonia release (Nessler) on L-glutaminase (Glut) from Aspergillus oryzae EG-RE9 | The IC50 of BD, NBS, DEPC, and NEM for A. oryzae L-glutaminase were […]

Assay [2] concerns T1, L-glutaminase (Glut) from Aspergillus oryzae EG-RE9. The experiment in a line: ammonia release (Nessler), Lineweaver-Burk. In kind it is biochemical. To be noted: pH 7.0, 35 °C, 1 h; L-glutamine 0.25-12 mM.

pIC50: −log10 of the molar value.

For the compound `CC(=O)C(C)=O` [butanedione], the pIC50 in assay [1] (group-specific modifier of Arg) is 2.18. `CCOC(=O)OC(=O)OCC` [diethyl pyrocarbonate] showed a pIC50 in assay [1] (group-specific modifier of His) of 2.15.

In turn, `O=C1CCC(=O)N1Br` [N-bromosuccinimide] had a pIC50 in assay [1] (group-specific modifier of Trp) of 2.24. As for `NC(=O)CC[C@H](N)C(=O)O` [L-glutamine], the Km in assay [2] came out at 1400 µM. Regarding `CCN1C(=O)C=CC1=O` [N-ethylmaleimide], the pIC50 in assay [1] (group-specific modifier of Cys) is 2.32.

The pIC50 is the negative decadic logarithm of the IC50, by convention in mol/L. Low readings indicate a large IC50, high ones a small IC50. A word on the Km: it is the substrate concentration at which the rate is half of its maximum.

The record behind these values is PMC12540682, “Purification and biochemical characterization of L-glutaminase from Aspergillus oryzae with potential biotechnological applications in synthesis of L-theanine and as antitumor agent” (Scientific Reports, 2025).
